Assay results from patent EP4353711A1, “QUINOLIN-2-YL NITRONES FOR THE TREATMENT AND PREVENTION OF STROKE” (Consejo Superior De Investigaciones Científicas, priority 2022, dated 2024).

Test system: male C57BL/6J mice
Test: pMCAO stroke model, infarct volume by T2-weighted MRI
Assay type: in vivo
Details: 85 mg/kg QN11 intraperitoneally 15 min after arterial ligature
Method: To study of the effects of QN11 on stroke recovery, administration of the vehicle and QN11 molecule was performed intraperitoneally, to 8-week-old male C57BL/6J mice (Harlan) weighing 25-30 g. All procedures with animals were carried out under a protocol approved by the Ethical Committee of the Spanish National Research Council (CSIC), and recommendations of the European Council. A special effort was made to keep to a minimum necessary the number of animals to achieve adequate significance. For surgery, anaesthesia induction was carried out with 3% isoflurane (in 70% N2O, 30% O2), followed by 2% isoflurane for maintenance during stroke procedure. Rectal temperature was maintained at 36.5 °C with the use of a heating pad. The common branch of the middle cerebral artery was, after craniotomy, exposed and occluded permanently by suture ligation. To ensure a complete artery occlusion during surgery, cortical blood flow was monitored by non-invasive laser Doppler flowmetry, as a quality control, with the aid of a Perimed equipment (PeriFlux System 5000 Stroke Model Monitor, Perimed, Järfälla, Sweden). […] Animals subjected to surgery for longer than 15 min were excluded of the study. Physiological parameters were maintained. […]
MRI is the most commonly used diagnostic tool for stroke. […] All MRI data was analysed using ImageJ software. […]

In the case of `[O-]/[N+](=C\c1ccc2cccc(O)c2n1)Cc1ccccc1` [QN11, (Z)-N-Benzyl-1-(8-hydroxyquinolin-2-yl)methanimine oxide], the “reduction in the percentage of brain infarct volume” value (MRI 48 h after pMCAO, compared with vehicle-treated animals (group b)) is reported as 74,47% and the “infarct volume with regard to the whole brain volume” value (T2WI MRI 48 h after pMCAO, vehicle group b 2.453 %) is reported as 0.6262%.
